According to ChEMBL document CHEMBL1201862, “PubChem BioAssay data set” (2004):
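How tested: cells in 96-well plates exposed to compound for 48 hours at five concentrations. Abbreviation: GI50, concentration required for 50% inhibition of growth.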 Active and inactive are the calls of the source. No stated cut-off is given here; in the data, active = GI50 up to about 1.1 µM and inactive = higher.

Key:
Experiment in all cases: DTP human tumour cell line panel, 48 h
786-0 = test system: 786-0
A498 = test system: A498
A549 = test system: A549
ACHN = test system: ACHN
BT-549 = test system: BT-549
CAKI-1 = test system: CAKI-1
CCRF-CEM = test system: CCRF-CEM
COLO 205 = test system: COLO 205
DU-145 = test system: DU-145
EKVX = test system: EKVX
HCC 2998 = test system: HCC 2998
HCT-116 = test system: HCT-116
HCT-15 = test system: HCT-15
HL-60 = test system: HL-60
HOP-62 = test system: HOP-62
HOP-92 = test system: HOP-92
HT-29 = test system: HT-29
Hs-578T = test system: Hs-578T
IGROV-1 = test system: IGROV-1
KM12 = test system: KM12
LOX IMVI = test system: LOX IMVI
M14 = test system: M14
MCF7 = test system: MCF7
MDA-MB-231 = test system: MDA-MB-231
MDA-MB-435 = test system: MDA-MB-435
MDA-N = test system: MDA-N
MOLT-4 = test system: MOLT-4
Malme-3M = test system: Malme-3M
NCI-H226 = test system: NCI-H226
NCI-H23 = test system: NCI-H23
NCI-H460 = test system: NCI-H460
NCI-H522 = test system: NCI-H522
NCI/ADR-RES = test system: NCI/ADR-RES
OVCAR-4 = test system: OVCAR-4
OVCAR-5 = test system: OVCAR-5
OVCAR-8 = test system: OVCAR-8
PC-3 = test system: PC-3
RPMI-8226 = test system: RPMI-8226
RXF 393 = test system: RXF 393
SF-268 = test system: SF-268
SF-539 = test system: SF-539
SK-MEL-28 = test system: SK-MEL-28
SK-MEL-2 = test system: SK-MEL-2
SK-MEL-5 = test system: SK-MEL-5
SN12C = test system: SN12C
SNB-19 = test system: SNB-19
SNB-75 = test system: SNB-75
SR = test system: SR
SW-620 = test system: SW-620
T47D = test system: T47D
TK-10 = test system: TK-10
U-251 = test system: U-251
UACC-257 = test system: UACC-257
UO-31 = test system: UO-31

CN(C)c1ccc(/C=N\NC(=O)Nc2cccc3ccccc23)cc1
GI50 (786-0): 5.74 µM (inactive) | GI50 (A498): 8.99 µM (inactive) | GI50 (A549): 9.57 µM (inactive) | GI50 (ACHN): 6.98 µM (inactive) | GI50 (BT-549): 11.7 µM (inactive) | GI50 (CAKI-1): 3.25 µM (inactive) | GI50 (CCRF-CEM): 4.26 µM (inactive) | GI50 (COLO 205): 4.99 µM (inactive) | GI50 (DU-145): 6.71 µM (inactive) | GI50 (EKVX): 0.215 µM (active) | GI50 (HCC 2998): 9.51 µM (inactive) | GI50 (HCT-116): 5.52 µM (inactive) | GI50 (HCT-15): 1.53 µM | GI50 (HL-60): 2.03 µM (inactive) | GI50 (HOP-62): 8.67 µM (inactive) | GI50 (HOP-92): 20.3 µM (inactive) | GI50 (HT-29): 2.62 µM (inactive) | GI50 (Hs-578T): 4.17 µM (inactive) | GI50 (IGROV-1): 9.91 µM (inactive) | GI50 (KM12): 2.61 µM (inactive) | GI50 (LOX IMVI): 4.15 µM (inactive) | GI50 (M14): 5.37 µM (inactive) | GI50 (MCF7): 3.86 µM (inactive) | GI50 (MDA-MB-231): 12.3 µM (inactive) | GI50 (MDA-MB-435): 0.927 µM (active) | GI50 (MDA-N): 1.53 µM (inactive) | GI50 (MOLT-4): 4.56 µM (inactive) | GI50 (Malme-3M): 4.03 µM (inactive) | GI50 (NCI-H226): 0.208 µM (active) | GI50 (NCI-H23): 4.75 µM (inactive) | GI50 (NCI-H460): 4.31 µM (inactive) | GI50 (NCI-H522): 2.08 µM (inactive) | GI50 (NCI/ADR-RES): 7.41 µM (inactive) | GI50 (OVCAR-4): 15.5 µM (inactive) | GI50 (OVCAR-5): 19.4 µM (inactive) | GI50 (OVCAR-8): 14.9 µM (inactive) | GI50 (PC-3): 6.62 µM (inactive) | GI50 (RPMI-8226): 4.28 µM (inactive) | GI50 (RXF 393): 20.7 µM (inactive) | GI50 (SF-268): 13 µM (inactive) | GI50 (SF-539): 4.4 µM (inactive) | GI50 (SK-MEL-28): 19.1 µM (inactive) | GI50 (SK-MEL-2): 2.9 µM (inactive) | GI50 (SK-MEL-5): 3.97 µM (inactive) | GI50 (SN12C): 11.8 µM (inactive) | GI50 (SNB-19): 2.46 µM (inactive) | GI50 (SNB-75): 9.02 µM (inactive) | GI50 (SR): 1.6 µM (inactive) | GI50 (SW-620): 6.11 µM (inactive) | GI50 (T47D): 2.73 µM (inactive) | GI50 (TK-10): 12.2 µM (inactive) | GI50 (U-251): 5.82 µM (inactive) | GI50 (UACC-257): 3.74 µM (inactive) | GI50 (UO-31): 13.2 µM (inactive)
